Reference: US20040198650A1, “Means for inhibiting proteolytical processing of parkin” (priority 2001, published 2004)
“Also recorded” adds a separate entry of the source.

Key:
[1] = system: K3-CHO and Park8-SH-SY5Y cells expressing human Parkin; experiment: Parkin cleavage during cellular apoptosis, induction verified by PARP immunoblot, in Parkin expressing cell lines; type: cell-based
Excerpt: Parkin cleavage during cellular apoptosis. […] Lanes 1-4, 6 were probed with T160, lane 5 with PAR-N1 and lane 7 with PAR-C1. The molecular weight is indicated to the left for Parkin (51 kDa) and the Parkin peptides (38 kDa and 11,5 kDa, respectively). The induction of apoptosis was verified biochemically by testing the binding of the same membranes with the mouse monoclonal poly-ADP-ribose (PARP) antibody 66401 A (Pharmigen). […] The generation of the 86 kDa PARP fragment is a recognised marker for apoptosis associated proteolysis.
The stably transfected Parkin expressing cell lines, K3-CHO (FIG. 3, lanes 1-5) and Park8-SH-SY5Y (FIG. 3, lanes 6, 7) were extracted and prepared for immunoblotting as described in example 2. […] FIG. 3, lanes 1-4, 6 were probed with T160, lane 5 with PAR-N1 and lane 7 with PAR-C1 antibodies. The molecular weight is indicated to the left for Parkin (51 kDa) and the Parkin peptides (38 kDa and 11,5 kDa, respectively). […]

[2] = system: apoptosis-associated Parkin cleavage in K3 CHO cells expressing human Parkin; experiment: Caspase inhibitors on okadaic acid-induced, apoptosis-associated Parkin cleavage in K3 CHO cells (T160 immunoblot); type: cell-based, Chinese hamster; settings: 10 microM inhibitor, 200 nM okadaic acid for 16 h
Method: K3 CHO cells were treated with 200 nM okadaic acid for 16 h (lanes 2-4) in the presence of 10 microM of the caspase inhibitors YVAD-chloromethylketone (lane 3) and DEVD-chloromethylketone (lane 4). The control cells treated with the DMSO used for solubilising the caspase inhibitors are shown in lane 2. Lane 1 represents non-treated control cells. […] Similar data was obtained in the Park8 SH-SY5Y cells.
The parental cell lines and the Parkin expressing cell lines were extracted in 8 M urea, 1% Triton X 100.20 microgram protein was supplemented to 2% sodium dodecylsulphate, 20 mM dithioerythreitol, 20 mM Tris, pH 6.5, 20% glycerol, heated to 95° C. for 5 min, whereafter the mixture was resolved by 10-20% gradient sodium dodecylsulphate polyacrylamide gelelectrophoresis. The proteins in the gel were electroblotted onto a nitrocellulose membrane and non-specific protein binding was blocked by incubating the membrane in block solution (20 mM Tris, pH 7.4, 130 mM NaCl, 0.5% Triton X100, 5% skimmed milk powder) for 2 hours. The membrane was subsequently incubated with primary antibody (PAR-N1, PAR-C1 and T160 diluted 1/500 in block solution) for 2 hours, rinsed in 20 mM Tris, pH 7.4, 130 mM NaCl, 0.5% Triton X100 and incubated with a second antibody (horse radish peroxidase conjugated swine anti rabbit serum) for 1 hour and rinsed. The bound antibody was then visualised by chemilumenescense according to the manufacturers recommendation (ECL, Amersham Pharmacia Biotech). FIG. 2 panel B, lanes 1 and 5 represent the non-transfected CHO and SH-SY5Y cell lines, respectively. FIG. 2, panel B, lanes 24 represents Parkin expressing CHO cells K3 and lane 6 represents the Parkin expressing SH-SY5Y cell Park 8. Lanes 1, 2, 5 and 6 were incubated with T160, lane 3 with PAR-Ni and lane 4 with PAR-C1. The molecular size marker is indicated to the left in kDa.
K3-CHO cells were treated with 200 nM okadaic acid for 16 h prior to extraction and processing for T160 immunoblot as described in example 2. […]

[3] = system: apoptosis-associated (caspase) cleavage of human Parkin; experiment: Site directed mutagenesis of Parkin Asp residues: apoptosis-associated cleavage in stably transfected CHO and SH-SY5Y cell lines (T160 immunoblot); type: cell-based; settings: 200 nanoM okadaic acid for 16 h
Excerpt: Site directed mutagenesis of […] 126 in parkin to a glutamate residue reduce the apoptosis associated cleavage of parkin. Caspases are proteinases that always cleave after an Asp residue and FIG. 3 indicated the cleavage takes place within the N-terminal 150 amino acid residues. We mutagenised the parkin expression vector to express human parkin where the Asp in the positions 86 plus 87,106, 115, 126 and 130 were substituted with and Glu. CHO and SHSY5Y cell lines were stably transfected with the expression vectors and used for testing the effect of the mutations on apoptosis-associated parkin cleavage. These cells and the cell lines expressing the normal Parkin were treated with 200 nanoM okadaic acid for 16 h and extracted for T160 immunoblotting. The CHO cell lines are represented in lanes 1-6 and the SH-SY5Y cell lines in lanes 7-12. Wild type Parkin is represented in lanes 1, 2, 7, 8; D126E in lanes 3, 4, 9, 10; D130E in lanes 5, 6, 11, 12. Lanes 1, 3, 5, 7, 9, 11 represent untreated cells and lanes 2, 4, 6, 8, 10, 12 represent okadaic treated cells. The positions of the 51 kDa and 38 kDa Parkin proteins are indicated by the upper and lower left arrows.
Caspases are proteinases that always cleave after an Asp residue. Cell lines were generated where Asp residues were changed to Glu residues to test if this amino acid position might represent the caspase cleavage sites. The Parkin expression vector used for generating the Parkin expressing K3 CHO and Park8 SH-SY5Y cell lines was changed by PCR mediated site directed mutagenesis so the nucleotide No.479 was changed from a cytosine to an adenine (ParkinD126E). The cDNA encoding Parkin was kindly provided by Dr. Mizuno, Juntendo University School of Medicine, Japan. The Parkin cDNA was PCR amplified using the primers: […]
The amplified Parkin cDNA was cloned into the Nhe I and EcoR I site of the pcDNA3.1/Zeo(−) vector and the Parkin cDNA sequence was checked by sequencing. To prepare the D126E mutant, the inventors performed site-directed mutagenesis using the Quickchange Mutagenesis Kit (Stratagene) according to the manufactures instructions. Complementary strands of the oligonucleotide: 5′-[…]-3′ were used for preparing the D126E mutated construct. Parkin vectors containing Parkin mutated for D130E and DD86, 87EE were constructed by analogous techniques. This vector was then transfected into SH-SYSY or CHO cells using FUGENE6 (Boehringer Mannheim) and stably transfected cell lines were selected using 25 microgram Zeocinl ml medium (SH-SY5Y cells) or 300 microgram Zeocin/ml medium (CHO cells). The sequences of the vectors were verified by DNA sequencing. The expression vectors were used to generate the stably transfected DD86, 87EE, D126E and D130E CHO and SH-SY5Y cell lines expressing Parkin protein with the indicated substitutions of amino acids. These cells and the cell lines expressing the normal Parkin were treated with 200 nanoM okadaic acid for 16 h and extracted for T160 immunoblotting. The CHO cell lines are represented in lanes FIG. 5, 1-6 and the SH-SY5Y cell lines in lanes 7-12. Wild type Parkin is represented in lanes 1, 2, 7, 8; D126E in lanes 3, 4, 9, 10; D130E in lanes 5, 6, 11, 12. Lanes 1, 3, 5, 7, 9, 11 represent untreated cells and lanes 2, 4, 6, 8, 10, 12 represent okadaic treated cells. The positions of the 51 kDa and 38 kDa Parkin proteins are indicated by the upper and lower left arrows.

[4] = system: CHO and SH-SY5Y cell lines; settings: cell death induced by 3 mM mercaptoethanol; Imai et al. 2000, FIG. 4A; cited from earlier work

Molecule: CC[C@@]1(O)C(=O)OCc2c1cc1n(c2=O)Cc2cc3ccccc3nc2-1 [campthotecin]
- Induction of apoptosis (generation of caspase 3 generated 86 kDa PARP fragment) ([1]; 5 microgram/ml for 30 hours, K3-CHO): 86 kDa fragment was generated

Molecule: DEVD-chloromethylketone
- Effect on apoptosis-associated Parkin cleavage (51 kDa Parkin to 38 kDa fragment) [2]: abrogate the cleavage; also recorded: cleavage is abrogated

Molecule: OCCS [mercaptoethanol]
- Parkin cleavage after D126 following induced cell death ([1]; T160 immunoblotting as in example 3): followed by Parkin cleavage after D126

Molecule: YVAD-chloromethylketone
- Effect on apoptosis-associated Parkin cleavage (51 kDa Parkin to 38 kDa fragment) [2]: cleavage is abrogated
- Effect on apoptosis-associated Parkin cleavage (51 kDa Parkin to 38 kDa fragment) ([2]; listed as WAD-chloromethylketone): abrogate the cleavage

Molecule: C=C1[C@@H](O)[C@@H]2O[C@]3(CC[C@H](/C=C/[C@@H](C)[C@@H]4CC(C)=C[C@@]5(O[C@H](C[C@@](C)(O)C(=O)O)CC[C@H]5O)O4)O3)CC[C@H]2O[C@@H]1[C@@H](O)C[C@H](C)[C@H]1O[C@@]2(CCCCO2)CC[C@H]1C [okadaic acid]
- Induction of apoptosis (generation of caspase 3 generated 86 kDa PARP fragment) ([1]; 200 nM for 16 hours): 86 kDa fragment was generated

B1: D130E: human Parkin with Asp 130 substituted by Glu (protein)
chain: MIVFVRFNSSHGFPVEVDSDTSIFQLKEVVAKRQGVPADQLRVIFAGKELRNDWTVQNCDLDQQSIVHIVQRPWRKGQEMNATGGDDPRNAAGGCEREPQSLTRVDLSSSVLPGDSVGLAVILHTDSRKESPPAGSPAGRSIYNSFYVYCKGPCQRVQPGKLRVQCSTCRQATLTLTQGPSCWDDVLIPNRMSGECQSPHCPGTSAEFFFKCGAHPTSDKETPVALHLIATNSRNITCITCTDVRSPVLVFQCNSRHVICLDCFHLYCVTRLNDRQFVHDPQLGYSLPCVAGCPNSLIKELHHFRILGEEQYNRYQQYGAEECVLQMGGVLCPRPGCGAGLLPEPDQRKVTCEGGNGLGCGFAFCRECKEAYHEGECSAVFEASGTTTQAYRVDERAAEQARWEAASKETIKKTTKPCPRCHVPVEKNGGCMHMKCPQPQCRLEWCWNCGCEWNRVCMGDHWFDV
- Apoptosis-associated cleavage of mutated Parkin compared to wild type [3]: no significant effect; also recorded: cleavage as the WT parkin

B2: D115E: human Parkin with Asp 115 substituted by Glu (protein)
chain: MIVFVRFNSSHGFPVEVDSDTSIFQLKEVVAKRQGVPADQLRVIFAGKELRNDWTVQNCDLDQQSIVHIVQRPWRKGQEMNATGGDDPRNAAGGCEREPQSLTRVDLSSSVLPGESVGLAVILHTDSRKDSPPAGSPAGRSIYNSFYVYCKGPCQRVQPGKLRVQCSTCRQATLTLTQGPSCWDDVLIPNRMSGECQSPHCPGTSAEFFFKCGAHPTSDKETPVALHLIATNSRNITCITCTDVRSPVLVFQCNSRHVICLDCFHLYCVTRLNDRQFVHDPQLGYSLPCVAGCPNSLIKELHHFRILGEEQYNRYQQYGAEECVLQMGGVLCPRPGCGAGLLPEPDQRKVTCEGGNGLGCGFAFCRECKEAYHEGECSAVFEASGTTTQAYRVDERAAEQARWEAASKETIKKTTKPCPRCHVPVEKNGGCMHMKCPQPQCRLEWCWNCGCEWNRVCMGDHWFDV
- Apoptosis-associated cleavage of mutated Parkin compared to wild type [3]: cleavage as the WT parkin

B3: D105E: human Parkin Asp to Glu mutant (position printed as 105 and 106) (protein)
chain: MIVFVRFNSSHGFPVEVDSDTSIFQLKEVVAKRQGVPADQLRVIFAGKELRNDWTVQNCDLDQQSIVHIVQRPWRKGQEMNATGGDDPRNAAGGCEREPQSLTRVELSSSVLPGDSVGLAVILHTDSRKDSPPAGSPAGRSIYNSFYVYCKGPCQRVQPGKLRVQCSTCRQATLTLTQGPSCWDDVLIPNRMSGECQSPHCPGTSAEFFFKCGAHPTSDKETPVALHLIATNSRNITCITCTDVRSPVLVFQCNSRHVICLDCFHLYCVTRLNDRQFVHDPQLGYSLPCVAGCPNSLIKELHHFRILGEEQYNRYQQYGAEECVLQMGGVLCPRPGCGAGLLPEPDQRKVTCEGGNGLGCGFAFCRECKEAYHEGECSAVFEASGTTTQAYRVDERAAEQARWEAASKETIKKTTKPCPRCHVPVEKNGGCMHMKCPQPQCRLEWCWNCGCEWNRVCMGDHWFDV
- Apoptosis-associated cleavage of mutated Parkin compared to wild type [3]: cleavage as the WT parkin

B4: DD86, 87EE: human Parkin double mutant, Asp 86 and 87 substituted by Glu (protein)
chain: MIVFVRFNSSHGFPVEVDSDTSIFQLKEVVAKRQGVPADQLRVIFAGKELRNDWTVQNCDLDQQSIVHIVQRPWRKGQEMNATGGEEPRNAAGGCEREPQSLTRVDLSSSVLPGDSVGLAVILHTDSRKDSPPAGSPAGRSIYNSFYVYCKGPCQRVQPGKLRVQCSTCRQATLTLTQGPSCWDDVLIPNRMSGECQSPHCPGTSAEFFFKCGAHPTSDKETPVALHLIATNSRNITCITCTDVRSPVLVFQCNSRHVICLDCFHLYCVTRLNDRQFVHDPQLGYSLPCVAGCPNSLIKELHHFRILGEEQYNRYQQYGAEECVLQMGGVLCPRPGCGAGLLPEPDQRKVTCEGGNGLGCGFAFCRECKEAYHEGECSAVFEASGTTTQAYRVDERAAEQARWEAASKETIKKTTKPCPRCHVPVEKNGGCMHMKCPQPQCRLEWCWNCGCEWNRVCMGDHWFDV
- Apoptosis-associated cleavage of mutated Parkin compared to wild type [3]: no significant effect; also recorded: cleavage as the WT parkin

B5: Parkin: wild type human Parkin protein (SEQ ID NO: 2) (protein, listed as Homo sapiens)
chain: MIVFVRFNSSHGFPVEVDSDTSIFQLKEVVAKRQGVPADQLRVIFAGKELRNDWTVQNCDLDQQSIVHIVQRPWRKGQEMNATGGDDPRNAAGGCEREPQSLTRVDLSSSVLPGDSVGLAVILHTDSRKDSPPAGSPAGRSIYNSFYVYCKGPCQRVQPGKLRVQCSTCRQATLTLTQGPSCWDDVLIPNRMSGECQSPHCPGTSAEFFFKCGAHPTSDKETPVALHLIATNSRNITCITCTDVRSPVLVFQCNSRHVICLDCFHLYCVTRLNDRQFVHDPQLGYSLPCVAGCPNSLIKELHHFRILGEEQYNRYQQYGAEECVLQMGGVLCPRPGCGAGLLPEPDQRKVTCEGGNGLGCGFAFCRECKEAYHEGECSAVFEASGTTTQAYRVDERAAEQARWEAASKETIKKTTKPCPRCHVPVEKNGGCMHMKCPQPQCRLEWCWNCGCEWNRVCMGDHWFDV
modifications: mat_peptide (1)..() Native Parkin
- Protection against cell death by Parkin expression [4]: approximately 50%
